# Measured values: PubChem BioAssay (NCI)
#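 Briefly, cells in 96-well plates were exposed to five compound concentrations for 48 h, and endpoints were estimated by linear interpolation. The concentration for full growth arrest is given as TGI.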
# Legend:
# Assay in all cases: growth of human tumour cells (NCI), 48 h
# [1] = test system: U251 CNS
# [2] = test system: HOP-92 NSCLC
# [3] = test system: PC-3 prostate
# [4] = test system: HOP-62 NSCLC
# [5] = test system: HCT-15 colon
# [6] = test system: HCT-116 colon
# [7] = test system: OVCAR-5 ovarian
# [8] = test system: TK-10 renal
# [9] = test system: SK-MEL-2 melanoma
# [10] = test system: NCI-H522 lung
# [11] = test system: SF-539 CNS
# [12] = test system: MDA-MB-231 breast
# [13] = test system: UACC-62 melanoma
# [14] = test system: HS 578T breast
# [15] = test system: RPMI-8226 leukemia
# [16] = test system: MCF7 breast
# [17] = test system: K-562 leukemia
# [18] = test system: SK-OV-3 ovarian
# [19] = test system: SK-MEL-5 melanoma
# [20] = test system: SF-268 CNS
# [21] = test system: SF-295 CNS
# [22] = test system: MOLT-4 leukemia
# [23] = test system: SNB-75 CNS
# [24] = test system: SN12C renal
# [25] = test system: UACC-257 melanoma
# [26] = test system: COLO 205 colon
# [27] = test system: A498 renal
# [28] = test system: MALME-3M melanoma
# [29] = test system: SNB-19 CNS
# [30] = test system: BT-549 breast
# [31] = test system: DU-145 prostate
# [32] = test system: NCI-H23 lung
# [33] = test system: OVCAR-4 ovarian
# [34] = test system: IGROV1 ovarian
# [35] = test system: CCRF-CEM leukemia
# [36] = test system: EKVX NSCLC
# [37] = test system: SR leukemia
# [38] = test system: A549 NSCLC
# [39] = test system: MDA-MB-435
# [40] = test system: T-47D breast
# [41] = test system: UO-31 renal
# [42] = test system: OVCAR-8 ovarian
# [43] = test system: MDA-N
# [44] = test system: NCI-H226 lung
# [45] = test system: OVCAR-3 ovarian
# [46] = test system: 786-0 renal
# [47] = test system: KM12 colon
# [48] = test system: M14 melanoma
# [49] = test system: NCI/ADR-RES ovarian
# [50] = test system: SW-620 colon
# [51] = test system: CAKI-1 renal
# [52] = test system: HCC-2998 colon
# [53] = test system: HT29 colon
# [54] = test system: HL-60(TB) leukemia
# [55] = test system: NCI-H460 lung
# [56] = test system: ACHN renal
# [57] = test system: SK-MEL-28 melanoma
# [58] = test system: RXF 393 renal
# [59] = test system: LOX IMVI melanoma
smiles,measurement,setting,value
Clc1c2ncccc2cc2n[nH]nc12,TGI,[1],> 100 µM
same,TGI,[2],> 100 µM
same,TGI,[3],> 100 µM
same,TGI,[4],> 100 µM
same,TGI,[5],> 100 µM
same,TGI,[6],> 100 µM
same,TGI,[7],> 100 µM
same,TGI,[8],> 100 µM
same,TGI,[9],> 100 µM
same,TGI,[10],> 100 µM
same,TGI,[11],> 100 µM
same,TGI,[12],> 100 µM
same,TGI,[13],> 100 µM
same,TGI,[14],> 100 µM
same,TGI,[15],> 100 µM
same,TGI,[16],> 100 µM
same,TGI,[17],> 100 µM
same,TGI,[18],> 100 µM
same,TGI,[19],> 100 µM
same,TGI,[20],> 100 µM
same,TGI,[21],> 100 µM
same,TGI,[22],77.1 µM
same,TGI,[23],> 100 µM
same,TGI,[24],> 100 µM
same,TGI,[25],> 100 µM
same,TGI,[26],> 100 µM
same,TGI,[27],> 100 µM
same,TGI,[28],> 100 µM
same,TGI,[29],> 100 µM
same,TGI,[30],> 100 µM
same,TGI,[31],> 100 µM
same,TGI,[32],> 100 µM
same,TGI,[33],> 100 µM
same,TGI,[34],> 100 µM
same,TGI,[35],> 100 µM
same,TGI,[36],> 100 µM
same,TGI,[37],> 100 µM
same,TGI,[38],> 100 µM
same,TGI,[39],> 100 µM
same,TGI,[40],> 100 µM
same,TGI,[41],> 100 µM
same,TGI,[42],> 100 µM
same,TGI,[43],> 100 µM
same,TGI,[44],> 100 µM
same,TGI,[45],> 100 µM
same,TGI,[46],> 100 µM
same,TGI,[47],> 100 µM
same,TGI,[48],> 100 µM
same,TGI,[49],> 100 µM
same,TGI,[50],> 100 µM
same,TGI,[51],> 100 µM
same,TGI,[52],> 100 µM
same,TGI,[53],> 100 µM
same,TGI,[54],> 100 µM
same,TGI,[55],> 100 µM
same,TGI,[56],> 100 µM
same,TGI,[57],> 100 µM
same,TGI,[58],> 100 µM
Cc1cccc2nc3cccc(C(=O)NCCC[N+](C)(CCCNC(=O)c4cccc5nc6cccc(C)c6nc45)Cc4ccc([N+](=O)[O-])n4C)c3nc12,TGI,[1],> 100 µM
same,TGI,[2],> 100 µM
same,TGI,[3],> 100 µM
same,TGI,[4],> 100 µM
same,TGI,[5],> 100 µM
same,TGI,[6],> 100 µM
same,TGI,[7],> 100 µM
same,TGI,[8],> 100 µM
same,TGI,[9],> 100 µM
same,TGI,[10],> 100 µM
same,TGI,[12],> 100 µM
same,TGI,[13],> 100 µM
same,TGI,[14],> 100 µM
same,TGI,[15],> 100 µM
same,TGI,[16],> 100 µM
same,TGI,[17],> 100 µM
same,TGI,[18],> 100 µM
same,TGI,[19],> 100 µM
same,TGI,[20],> 100 µM
same,TGI,[21],> 100 µM
same,TGI,[22],26.2 µM
same,TGI,[23],> 100 µM
same,TGI,[24],> 100 µM
same,TGI,[25],> 100 µM
same,TGI,[26],> 100 µM
same,TGI,[27],> 100 µM
same,TGI,[28],> 100 µM
same,TGI,[29],> 100 µM
same,TGI,[30],> 100 µM
same,TGI,[31],> 100 µM
same,TGI,[32],> 100 µM
same,TGI,[33],> 100 µM
same,TGI,[34],> 100 µM
same,TGI,[35],> 26.9 µM
same,TGI,[36],> 100 µM
same,TGI,[37],> 100 µM
same,TGI,[38],> 100 µM
same,TGI,[39],> 100 µM
same,TGI,[40],> 100 µM
same,TGI,[41],> 100 µM
same,TGI,[42],> 100 µM
same,TGI,[43],> 100 µM
same,TGI,[44],> 100 µM
same,TGI,[45],> 100 µM
same,TGI,[46],> 100 µM
same,TGI,[47],> 100 µM
same,TGI,[48],> 100 µM
same,TGI,[49],> 100 µM
same,TGI,[50],> 100 µM
same,TGI,[51],> 100 µM
same,TGI,[52],> 100 µM
same,TGI,[53],> 100 µM
same,TGI,[55],> 100 µM
same,TGI,[59],> 100 µM
same,TGI,[56],> 100 µM
same,TGI,[57],> 100 µM
same,TGI,[58],> 100 µM
